Measurements reported in ChEMBL document CHEMBL1201862, “PubChem BioAssay data set” (2004).
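Dose response: 5 concentrations. Exposure: 48 h. Format: 96-well plates. Endpoint: linear interpolation; highest concentration if not reached. Here, GI50 denotes the concentration required for 50% inhibition of growth.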 The source made the active and inactive calls. Cut-off read from the data, not from the text of the source: active = GI50 up to about 1.1 µM and inactive = higher.

How the values were obtained:
Test in all cases: NCI anticancer screen, dose series, 48 h
SR = tested on: SR
COLO 205 = tested on: COLO 205
U-251 = tested on: U-251
OVCAR-8 = tested on: OVCAR-8
HOP-62 = tested on: HOP-62
HOP-92 = tested on: HOP-92
Hs-578T = tested on: Hs-578T
HL-60 = tested on: HL-60
SW-620 = tested on: SW-620
NCI/ADR-RES = tested on: NCI/ADR-RES
SF-268 = tested on: SF-268
MDA-MB-231 = tested on: MDA-MB-231
RPMI-8226 = tested on: RPMI-8226
SNB-19 = tested on: SNB-19
OVCAR-4 = tested on: OVCAR-4
IGROV-1 = tested on: IGROV-1
NCI-H226 = tested on: NCI-H226
HCT-116 = tested on: HCT-116
SN12C = tested on: SN12C
RXF 393 = tested on: RXF 393

SMILES	GI50 (SR)	GI50 (COLO 205)	GI50 (U-251)	GI50 (OVCAR-8)	GI50 (HOP-62)	GI50 (HOP-92)	GI50 (Hs-578T)	GI50 (HL-60)	GI50 (SW-620)	GI50 (NCI/ADR-RES)	GI50 (SF-268)	GI50 (MDA-MB-231)	GI50 (RPMI-8226)	GI50 (SNB-19)	GI50 (OVCAR-4)	GI50 (IGROV-1)	GI50 (NCI-H226)	GI50 (HCT-116)	GI50 (SN12C)	GI50 (RXF 393)
O=C1/C(=C/c2cccc([N+](=O)[O-])c2)CCCc2ccccc21	2.86 µM (inactive)	18.8 µM (inactive)	8.71 µM (inactive)	12.7 µM (inactive)	15.6 µM (inactive)	14.4 µM (inactive)	3.94 µM (inactive)	4.94 µM (inactive)	4.76 µM (inactive)	9.51 µM (inactive)	4.82 µM (inactive)	17 µM (inactive)	11.4 µM (inactive)	15.2 µM (inactive)	13.7 µM (inactive)	11 µM (inactive)	16.2 µM (inactive)	5.4 µM (inactive)	17.3 µM (inactive)	
c1ccc2c(c1)CCCN1CCc3ccccc3C21 (stereo unspecified)	58.7 µM (inactive)	46.7 µM (inactive)	51.5 µM (inactive)	> 100 µM (inactive)	50 µM (inactive)	24.9 µM (inactive)	> 100 µM (inactive)	47.1 µM (inactive)	35.5 µM (inactive)	78.3 µM (inactive)	92 µM (inactive)	48.1 µM (inactive)	36.2 µM (inactive)	92.3 µM (inactive)	9.46 µM (inactive)	40.3 µM (inactive)	33.3 µM (inactive)	38.5 µM (inactive)	57 µM (inactive)	
Cc1ccc(OCC2OC(C#N)C(Oc3ccc(C)cc3)C2Oc2ccc(C)cc2)cc1 (stereo unspecified)	> 100 µM (inactive)	> 100 µM (inactive)	> 100 µM (inactive)	> 100 µM (inactive)	> 100 µM (inactive)		> 100 µM (inactive)	> 100 µM (inactive)	> 100 µM (inactive)	> 100 µM (inactive)	> 100 µM (inactive)	> 100 µM (inactive)	> 100 µM (inactive)	> 100 µM (inactive)	> 100 µM (inactive)	> 100 µM (inactive)	> 100 µM (inactive)	> 100 µM (inactive)	> 100 µM (inactive)	> 100 µM (inactive)
CCOC(=O)NNC(=O)NCCCCNC(=O)NNC(=O)OCC		> 100 µM (inactive)	> 100 µM (inactive)	> 100 µM (inactive)	> 100 µM (inactive)	> 100 µM (inactive)	> 100 µM (inactive)	> 100 µM (inactive)	> 100 µM (inactive)	> 100 µM (inactive)		> 100 µM (inactive)	> 100 µM (inactive)	> 100 µM (inactive)		> 100 µM (inactive)	> 100 µM (inactive)	> 100 µM (inactive)	> 100 µM (inactive)	> 100 µM (inactive)
CCOC(=O)NC(C(F)(F)F)(C(F)(F)F)P(=O)(OC(C)C)OC(C)C	> 100 µM (inactive)	> 100 µM (inactive)	> 100 µM (inactive)	> 100 µM (inactive)	> 100 µM (inactive)		> 100 µM (inactive)	> 100 µM (inactive)	> 100 µM (inactive)	> 100 µM (inactive)	> 100 µM (inactive)	> 100 µM (inactive)	> 100 µM (inactive)	> 100 µM (inactive)	> 100 µM (inactive)	> 100 µM (inactive)	58.7 µM (inactive)	> 100 µM (inactive)	> 100 µM (inactive)	> 100 µM (inactive)
CCCCn1c(-c2ccc([N+](=O)[O-])cc2)cs/c1=N/N=C1\C(=O)Nc2ccc(Br)cc21		13.6 µM (inactive)	10.4 µM (inactive)	30 µM (inactive)	15.7 µM (inactive)	26 µM (inactive)	43.2 µM (inactive)	16.9 µM (inactive)	39.6 µM (inactive)	17.1 µM (inactive)	29.9 µM (inactive)	15.7 µM (inactive)		21.8 µM (inactive)	12.6 µM (inactive)	19.1 µM (inactive)	21.1 µM (inactive)	12.9 µM (inactive)	3.78 µM (inactive)	8 µM (inactive)
Oc1cccc(-c2ccc3c4c2O[C@H]2c5[nH]c6ccccc6c5C[C@@]5(O)[C@@H](C3)N(CC3CC3)CC[C@]425)c1		2.44 µM (inactive)		1.83 µM (inactive)		2.13 µM (inactive)	1.74 µM (inactive)	1.65 µM (inactive)	1.88 µM (inactive)	2.11 µM (inactive)	1.68 µM (inactive)	2.17 µM (inactive)		1.64 µM (inactive)	1.61 µM (inactive)	1.74 µM (inactive)	3.75 µM (inactive)	1.82 µM (inactive)	1.67 µM (inactive)	1.35 µM (inactive)
C=C(NC(=O)C(=C)NC(=O)c1csc(C2=NC3c4csc(n4)C4NC(=O)c5csc(n5)C(C(C)(O)C(C)O)NC(=O)C5CSC(=N5)/C(=C/C)NC(=O)C(C(C)O)NC(=O)c5csc(n5)C3(CC2)NC(=O)C(C)NC(=O)C(=C)NC(=O)C(=C)NC(=O)C(C(C)C)NC2C=Cc3c(C(C)O)cc(nc3C2O)C(=O)OC4C)n1)C(N)=O (stereo unspecified)		0.468 µM (active)	0.877 µM (active)	0.935 µM (active)	19.6 µM (inactive)	4.67 µM (inactive)	12.3 µM (inactive)	2.24 µM (inactive)	0.673 µM (active)	> 42.2 µM (inactive)	7.19 µM (inactive)	0.815 µM (active)	1.29 µM (inactive)	33 µM (inactive)	> 52.4 µM (inactive)	7.28 µM (inactive)	1.19 µM (inactive)	0.312 µM (active)	3.75 µM (inactive)	0.708 µM (active)
OC(c1nc2ccccc2s1)(C(F)(F)F)C(F)(F)F		> 100 µM (inactive)	> 100 µM (inactive)	> 100 µM (inactive)	> 100 µM (inactive)		> 100 µM (inactive)	> 100 µM (inactive)	> 100 µM (inactive)	> 100 µM (inactive)	> 100 µM (inactive)	> 100 µM (inactive)	> 100 µM (inactive)	> 100 µM (inactive)	> 100 µM (inactive)	> 100 µM (inactive)	> 100 µM (inactive)	> 100 µM (inactive)	> 100 µM (inactive)	> 100 µM (inactive)
CCN(CC)c1ccc(C2SCC(=O)N2c2ccc(NC(=O)c3ccc(N4C(=O)CSC4c4ccc(N(CC)CC)cc4)cc3)cc2)cc1 (stereo unspecified)		> 100 µM (inactive)	> 100 µM (inactive)	> 100 µM (inactive)	89.7 µM (inactive)	> 100 µM (inactive)	> 100 µM (inactive)		> 100 µM (inactive)	> 100 µM (inactive)	> 100 µM (inactive)	> 100 µM (inactive)		> 100 µM (inactive)	70.8 µM (inactive)	> 100 µM (inactive)		> 100 µM (inactive)	> 100 µM (inactive)	> 100 µM (inactive)
ClC1=NN=C(c2c[nH]c3ccccc23)CC1NCc1ccccc1 (stereo unspecified)		> 100 µM (inactive)	> 100 µM (inactive)	> 100 µM (inactive)	> 100 µM (inactive)	> 100 µM (inactive)	> 100 µM (inactive)	> 100 µM (inactive)	> 100 µM (inactive)	> 100 µM (inactive)	> 100 µM (inactive)	> 100 µM (inactive)	> 100 µM (inactive)	> 100 µM (inactive)		97.7 µM (inactive)	> 100 µM (inactive)	> 100 µM (inactive)	> 100 µM (inactive)	> 100 µM (inactive)
CN(C)CCN1C(=O)c2ccccc2C1(O)c1ccc(Cl)cc1 (stereo unspecified)		> 100 µM (inactive)	99.1 µM (inactive)	> 100 µM (inactive)	> 100 µM (inactive)		74 µM (inactive)	26.4 µM (inactive)	> 100 µM (inactive)	97.1 µM (inactive)	> 100 µM (inactive)	44.6 µM (inactive)	> 100 µM (inactive)	> 100 µM (inactive)	> 100 µM (inactive)	39.3 µM (inactive)	66.7 µM (inactive)	63.5 µM (inactive)	> 100 µM (inactive)	15.7 µM (inactive)
Cc1ccc2c(c1C)CC1(Cc3c(ccc4c3CCC4)C1=O)C2=O (stereo unspecified)		> 100 µM (inactive)	> 100 µM (inactive)	> 100 µM (inactive)		> 100 µM (inactive)	> 100 µM (inactive)	> 100 µM (inactive)	> 100 µM (inactive)	> 100 µM (inactive)	> 100 µM (inactive)	> 100 µM (inactive)	> 100 µM (inactive)	> 100 µM (inactive)	> 100 µM (inactive)	> 100 µM (inactive)	> 100 µM (inactive)	> 100 µM (inactive)	> 100 µM (inactive)	> 100 µM (inactive)
CN(CC(=O)O)c1ncc2c(n1)-c1ccccc1SC2	92.3 µM (inactive)	> 100 µM (inactive)	> 100 µM (inactive)	> 100 µM (inactive)		> 100 µM (inactive)	> 100 µM (inactive)	> 100 µM (inactive)	> 100 µM (inactive)	> 100 µM (inactive)	> 100 µM (inactive)	> 100 µM (inactive)	> 100 µM (inactive)	> 100 µM (inactive)	> 100 µM (inactive)	> 100 µM (inactive)		> 100 µM (inactive)	> 100 µM (inactive)	
Oc1cc(-c2ccc(F)cc2)nc2ncccc12		20.2 µM (inactive)		77.8 µM (inactive)	98.2 µM (inactive)	45.3 µM (inactive)	65.2 µM (inactive)		38.2 µM (inactive)	32.9 µM (inactive)	62.1 µM (inactive)	> 100 µM (inactive)	37.1 µM (inactive)	80.2 µM (inactive)	78.9 µM (inactive)	67.5 µM (inactive)	24.3 µM (inactive)		> 100 µM (inactive)	
